Test: mn = molality of the nth substance listed, in mol/kg
Details: 101 kPa, Liquid

CCCCCC(=O)[O-].[Na+] [sodium hexanoate] + O
Details	mass density, m1 = 0.5 [kg/m3]	mass density, m1 = 1 [kg/m3]	mass density, m1 = 1.5 [kg/m3]	mass density, m1 = 2.177 [kg/m3]	viscosity, m1 = 0.5 [mPa·s]	viscosity, m1 = 1 [mPa·s]	viscosity, m1 = 1.5 [mPa·s]	viscosity, m1 = 2.177 [mPa·s]
298.15 K	1014.4	1029.41	1041.88	1054.22	1.212	1.607	2.102	3.187
308.15 K	1010.74	1024.96	1036.7	1048.72	0.956	1.24	1.601	2.402

Source: the NIST ThermoML archive (doi:10.1021/je0501484)
